In US7074789B2, “Kinase inhibitors” (Amgen Inc., priority 1999, dated 2006):
Where “and” joins values, the source holds several entries; their conditions need not be identical. Equal values may be shown once. Read-outs that look alike come from different tables or passages of the source.

How the values were obtained:
Assay type in all cases: biochemical
Fyn = biological target: T1, Fyn (Homo sapiens, UniProt P06241); assay: Kinase inhibition assay (33P transfer), Fyn; settings: read-out: Fyn-1
T1 construct: Kinases are expressed as either kinase domains or full length constructs; made in house
How it was run: (§1)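 Each enzyme, purified to near homogeneity by affinity chromatography, was incubated with ATP carrying 33P and a substrate polymer fixed to the plate. Unbound label was removed with dilute phosphoric acid (0.5%) before adding scintillant and counting. Potency is given as the compound level cutting label uptake by 50%.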

Src = biological target: T2, Src (Homo sapiens, UniProt P12931); assay: Kinase inhibition assay (33P transfer), Src; settings: Table 6, Src-1 kinase inhibition class
T2 construct: Kinases are expressed as either kinase domains or full length constructs; made in house
How it was run: as §1

Zap-70 = biological target: T3, Zap-70 (Homo sapiens, UniProt P43403); assay: Kinase inhibition assay (33P transfer), Zap-70; settings: read-out: Zap-1
T3 construct: Kinases are expressed as either kinase domains or full length constructs; made in house
T3 sequence (P43403 1-619): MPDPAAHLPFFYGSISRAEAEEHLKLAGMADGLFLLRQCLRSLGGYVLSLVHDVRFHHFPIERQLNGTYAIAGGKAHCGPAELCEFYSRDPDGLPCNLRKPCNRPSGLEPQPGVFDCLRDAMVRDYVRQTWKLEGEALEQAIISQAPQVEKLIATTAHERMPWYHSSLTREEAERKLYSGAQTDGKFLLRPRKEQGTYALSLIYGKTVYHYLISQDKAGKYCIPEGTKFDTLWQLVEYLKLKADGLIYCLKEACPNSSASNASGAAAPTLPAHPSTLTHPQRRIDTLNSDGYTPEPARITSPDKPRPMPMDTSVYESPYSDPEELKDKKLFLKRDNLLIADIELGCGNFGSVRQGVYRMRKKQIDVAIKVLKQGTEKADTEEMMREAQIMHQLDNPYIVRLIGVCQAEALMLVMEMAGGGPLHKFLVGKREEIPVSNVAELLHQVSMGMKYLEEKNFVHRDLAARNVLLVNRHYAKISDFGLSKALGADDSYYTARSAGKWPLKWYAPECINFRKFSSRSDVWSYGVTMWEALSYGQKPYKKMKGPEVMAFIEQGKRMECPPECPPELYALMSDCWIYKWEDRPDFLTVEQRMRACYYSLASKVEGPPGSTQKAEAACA
How it was run: (§2)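 GST/His-tagged kinase (domain or full length; E. coli or baculovirus) + [33P]ATP on plates coated with poly(Glu,Tyr) 4:1 or poly(Arg,Ser) 3:1; incubate, wash 0.5% H3PO4, add scintillant, count.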

PDGFRB [1] = biological target: T4, PDGFRB (Homo sapiens, UniProt P09619); assay: Kinase inhibition assay (33P transfer), PDGFRB; settings: read-out: PDGFRB-1
T4 construct: Kinases are expressed as either kinase domains or full length constructs; made in house

Kdr = biological target: T5, Kdr (Homo sapiens, UniProt P35968); assay: Kinase inhibition assay (33P transfer), Kdr; settings: read-out: KDR-1
T5 construct: Kinases are expressed as either kinase domains or full length constructs; made in house
How it was run: as §2

Flt-1 = biological target: T6, Flt-1 (Homo sapiens, UniProt P17948); assay: Kinase inhibition assay (33P transfer), Flt-1
T6 construct: Kinases are expressed as either kinase domains or full length constructs; made in house
How it was run: as §1

Ret-1 = biological target: T7, Ret-1 (Homo sapiens, UniProt P07949); assay: Kinase inhibition assay (33P transfer), Ret; settings: Table 6, Ret-1 kinase inhibition class
T7 construct: Kinases are expressed as either kinase domains or full length constructs; made in house

c-Met = biological target: T8, c-Met (Homo sapiens, UniProt P08581); assay: Kinase inhibition assay (33P transfer), c-Met; settings: Table 2, kinase inhibition class; read-out: Met-1
T8 construct: Kinases are expressed as either kinase domains or full length constructs; made in house
How it was run: as §1

Lck = biological target: T9, Lck (Homo sapiens, UniProt P06239); assay: Kinase inhibition assay (33P transfer), Lck; settings: read-out: Lck-1
T9 construct: Kinases are expressed as either kinase domains or full length constructs; made in house
How it was run: as §2

Hck-1 = biological target: T10, Hck-1 (Homo sapiens, UniProt P08631); assay: Kinase inhibition assay (33P transfer), Hck; settings: Table 6, Hck-1 kinase inhibition class
T10 construct: Kinases are expressed as either kinase domains or full length constructs; made in house

IGFR-1 = biological target: T11, IGFR-1 (Homo sapiens, UniProt P08069); assay: Kinase inhibition assay, IGFR-1 (Table 2); settings: Table 2, kinase inhibition class
T11 construct: Kinases are expressed as either kinase domains or full length constructs; made in house

Itk = biological target: T12, Itk (Homo sapiens, UniProt Q08881); assay: Kinase inhibition assay (33P transfer), Itk; settings: read-out: Itk-1
T12 construct: Kinases are expressed as either kinase domains or full length constructs; made in house
T12 sequence (Q08881 1-620): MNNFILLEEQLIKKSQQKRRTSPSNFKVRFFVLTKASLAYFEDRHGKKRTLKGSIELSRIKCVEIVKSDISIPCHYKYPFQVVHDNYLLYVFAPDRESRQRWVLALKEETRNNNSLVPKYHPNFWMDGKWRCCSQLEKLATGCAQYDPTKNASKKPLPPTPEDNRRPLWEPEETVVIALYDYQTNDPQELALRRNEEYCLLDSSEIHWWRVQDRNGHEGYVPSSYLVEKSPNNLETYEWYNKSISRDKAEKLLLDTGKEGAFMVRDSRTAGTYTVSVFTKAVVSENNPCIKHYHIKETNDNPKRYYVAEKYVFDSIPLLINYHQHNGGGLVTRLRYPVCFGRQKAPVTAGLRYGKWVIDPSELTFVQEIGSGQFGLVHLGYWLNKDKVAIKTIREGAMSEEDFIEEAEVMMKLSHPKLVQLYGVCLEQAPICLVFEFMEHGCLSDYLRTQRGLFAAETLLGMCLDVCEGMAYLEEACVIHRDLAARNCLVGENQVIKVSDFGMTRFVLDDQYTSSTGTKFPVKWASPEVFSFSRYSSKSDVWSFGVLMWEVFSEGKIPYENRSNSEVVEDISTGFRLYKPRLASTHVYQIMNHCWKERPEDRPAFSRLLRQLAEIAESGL
How it was run: as §1

ErbB4 = biological target: T13, ErbB4 (Homo sapiens, UniProt Q15303); assay: Kinase inhibition assay (33P transfer), ErbB4; settings: read-out: ErbB4-1
T13 construct: Kinases are expressed as either kinase domains or full length constructs; made in house

Lyn = biological target: T14, Lyn (Homo sapiens, UniProt P07948); assay: Kinase inhibition assay (33P transfer), Lyn; settings: Table 6, Lyn-1 kinase inhibition class
T14 construct: Kinases are expressed as either kinase domains or full length constructs; made in house
How it was run: as §1

AKT = biological target: T15, AKT (Homo sapiens, UniProt Q9Y243); assay: Kinase inhibition assay (33P transfer), AKT; settings: Table 2, kinase inhibition class; read-out: AKT3-1
T15 construct: Kinases are expressed as either kinase domains or full length constructs; made in house
How it was run: as §2

FGFR1 = biological target: T16, FGFR1 (Homo sapiens, UniProt P11362); assay: Kinase inhibition assay (33P transfer), FGFR1; settings: read-out: FGFR1-1
T16 construct: Kinases are expressed as either kinase domains or full length constructs; made in house

EGFR = biological target: T17, EGFR (Homo sapiens, UniProt P00533); assay: Kinase inhibition assay (33P transfer), EGFR; settings: Table 2, kinase inhibition class; read-out: EGFR-1
T17 construct: Kinases are expressed as either kinase domains or full length constructs; made in house
How it was run: as §1

ErbB2 = biological target: T18, ErbB2 (Homo sapiens, UniProt P04626); assay: Kinase inhibition assay (33P transfer), ErbB2; settings: read-out: ErbB2-2
T18 construct: Kinases are expressed as either kinase domains or full length constructs; made in house
How it was run: as §1

PDGFRB [2] = biological target: T4, PDGFRB; assay: Kinase inhibition assay (33P transfer), PDGFRB; settings: read-out: PDGFRB-1; remark: listed apart in the source

T18 sequence (P04626 23-1255, species assumed): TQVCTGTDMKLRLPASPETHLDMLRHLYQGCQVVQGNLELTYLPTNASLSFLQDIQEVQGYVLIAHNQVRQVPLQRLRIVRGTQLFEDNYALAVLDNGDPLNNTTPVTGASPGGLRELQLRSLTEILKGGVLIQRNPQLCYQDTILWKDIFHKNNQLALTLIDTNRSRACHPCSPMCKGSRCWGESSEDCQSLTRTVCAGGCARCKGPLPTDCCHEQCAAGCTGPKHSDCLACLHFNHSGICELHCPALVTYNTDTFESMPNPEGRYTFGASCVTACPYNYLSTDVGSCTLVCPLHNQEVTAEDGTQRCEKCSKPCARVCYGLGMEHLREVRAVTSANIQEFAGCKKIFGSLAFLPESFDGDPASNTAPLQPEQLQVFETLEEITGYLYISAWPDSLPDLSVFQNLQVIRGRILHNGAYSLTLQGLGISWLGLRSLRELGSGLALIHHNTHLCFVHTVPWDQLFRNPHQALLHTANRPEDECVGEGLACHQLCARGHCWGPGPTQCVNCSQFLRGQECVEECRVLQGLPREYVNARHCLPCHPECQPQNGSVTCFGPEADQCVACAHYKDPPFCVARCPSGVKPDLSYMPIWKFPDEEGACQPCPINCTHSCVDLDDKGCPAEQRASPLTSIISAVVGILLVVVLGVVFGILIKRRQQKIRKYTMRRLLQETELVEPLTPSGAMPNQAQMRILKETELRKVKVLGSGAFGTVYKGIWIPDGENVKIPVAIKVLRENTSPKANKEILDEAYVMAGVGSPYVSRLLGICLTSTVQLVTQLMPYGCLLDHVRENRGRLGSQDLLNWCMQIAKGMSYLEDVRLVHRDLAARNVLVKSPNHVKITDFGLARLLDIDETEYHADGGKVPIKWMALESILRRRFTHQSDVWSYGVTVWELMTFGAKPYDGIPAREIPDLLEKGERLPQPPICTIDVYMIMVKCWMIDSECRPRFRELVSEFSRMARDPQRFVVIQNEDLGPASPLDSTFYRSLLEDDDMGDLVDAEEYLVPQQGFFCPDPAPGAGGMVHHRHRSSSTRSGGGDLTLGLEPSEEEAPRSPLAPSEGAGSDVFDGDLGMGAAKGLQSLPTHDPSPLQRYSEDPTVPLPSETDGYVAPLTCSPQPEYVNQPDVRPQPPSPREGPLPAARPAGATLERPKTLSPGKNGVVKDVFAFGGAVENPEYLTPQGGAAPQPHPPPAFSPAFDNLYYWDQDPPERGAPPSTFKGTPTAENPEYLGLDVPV
T6 sequence (P17948 27-1338, species assumed): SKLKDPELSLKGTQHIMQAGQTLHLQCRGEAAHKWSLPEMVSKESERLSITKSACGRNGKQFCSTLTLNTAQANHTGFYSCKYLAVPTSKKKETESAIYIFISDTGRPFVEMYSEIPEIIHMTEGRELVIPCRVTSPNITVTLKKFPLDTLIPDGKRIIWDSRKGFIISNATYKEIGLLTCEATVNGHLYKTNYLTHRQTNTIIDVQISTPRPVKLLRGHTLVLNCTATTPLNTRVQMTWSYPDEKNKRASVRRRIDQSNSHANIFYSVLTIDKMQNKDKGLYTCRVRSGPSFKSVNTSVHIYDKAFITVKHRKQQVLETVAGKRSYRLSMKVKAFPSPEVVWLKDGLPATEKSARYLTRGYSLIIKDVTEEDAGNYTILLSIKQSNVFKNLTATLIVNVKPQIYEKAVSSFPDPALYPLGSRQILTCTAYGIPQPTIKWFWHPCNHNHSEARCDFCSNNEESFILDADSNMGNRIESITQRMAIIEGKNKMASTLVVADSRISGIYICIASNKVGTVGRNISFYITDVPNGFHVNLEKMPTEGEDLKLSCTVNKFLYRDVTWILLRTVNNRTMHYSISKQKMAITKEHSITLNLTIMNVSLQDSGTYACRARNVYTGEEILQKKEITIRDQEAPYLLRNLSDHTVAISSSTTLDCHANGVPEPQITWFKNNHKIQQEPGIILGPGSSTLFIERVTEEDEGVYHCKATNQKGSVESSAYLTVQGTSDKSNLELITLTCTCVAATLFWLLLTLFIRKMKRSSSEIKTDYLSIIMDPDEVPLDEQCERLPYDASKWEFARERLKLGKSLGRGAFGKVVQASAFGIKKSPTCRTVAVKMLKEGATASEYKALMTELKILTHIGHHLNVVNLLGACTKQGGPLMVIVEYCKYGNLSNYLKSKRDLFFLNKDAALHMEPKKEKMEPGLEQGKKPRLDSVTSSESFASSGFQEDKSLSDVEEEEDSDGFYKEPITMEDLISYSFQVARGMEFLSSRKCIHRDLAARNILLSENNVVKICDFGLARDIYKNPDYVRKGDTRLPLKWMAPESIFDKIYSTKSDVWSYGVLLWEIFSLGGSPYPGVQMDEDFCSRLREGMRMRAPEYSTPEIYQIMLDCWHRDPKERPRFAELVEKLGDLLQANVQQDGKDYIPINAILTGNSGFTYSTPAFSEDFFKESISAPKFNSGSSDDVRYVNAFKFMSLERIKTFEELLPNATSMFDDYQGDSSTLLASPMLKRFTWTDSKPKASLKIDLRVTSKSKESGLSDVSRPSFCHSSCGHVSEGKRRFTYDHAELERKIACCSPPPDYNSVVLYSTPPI
T4 sequence (P09619 33-1106, species assumed): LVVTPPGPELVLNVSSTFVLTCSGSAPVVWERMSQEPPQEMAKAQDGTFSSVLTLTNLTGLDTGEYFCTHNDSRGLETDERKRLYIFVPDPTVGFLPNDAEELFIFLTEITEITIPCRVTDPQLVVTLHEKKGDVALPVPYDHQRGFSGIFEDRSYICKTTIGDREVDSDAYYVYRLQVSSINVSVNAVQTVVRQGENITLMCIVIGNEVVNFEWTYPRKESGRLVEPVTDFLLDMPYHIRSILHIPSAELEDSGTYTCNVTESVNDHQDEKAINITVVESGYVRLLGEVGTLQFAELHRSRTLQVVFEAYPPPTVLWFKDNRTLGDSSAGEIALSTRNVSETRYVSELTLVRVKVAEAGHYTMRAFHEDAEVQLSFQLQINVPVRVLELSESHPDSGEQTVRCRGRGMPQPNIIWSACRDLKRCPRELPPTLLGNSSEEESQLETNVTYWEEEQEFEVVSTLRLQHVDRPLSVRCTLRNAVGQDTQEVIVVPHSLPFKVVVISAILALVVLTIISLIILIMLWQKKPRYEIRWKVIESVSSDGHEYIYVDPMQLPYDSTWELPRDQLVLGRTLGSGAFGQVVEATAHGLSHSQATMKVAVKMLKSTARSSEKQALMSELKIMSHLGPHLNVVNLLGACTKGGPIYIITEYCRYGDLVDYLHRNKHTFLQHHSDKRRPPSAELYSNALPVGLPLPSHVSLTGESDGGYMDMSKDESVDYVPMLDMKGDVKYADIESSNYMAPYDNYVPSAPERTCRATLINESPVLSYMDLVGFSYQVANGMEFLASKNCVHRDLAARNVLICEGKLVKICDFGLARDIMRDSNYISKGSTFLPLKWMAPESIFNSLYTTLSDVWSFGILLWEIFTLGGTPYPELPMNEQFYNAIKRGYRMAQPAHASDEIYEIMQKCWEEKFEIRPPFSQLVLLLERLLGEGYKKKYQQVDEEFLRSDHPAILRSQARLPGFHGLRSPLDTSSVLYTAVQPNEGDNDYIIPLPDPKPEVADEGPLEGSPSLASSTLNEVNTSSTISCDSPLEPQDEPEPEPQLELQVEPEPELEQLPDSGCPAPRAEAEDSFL
T9 sequence (P06239 whole entry, species assumed, the tested form may be a part): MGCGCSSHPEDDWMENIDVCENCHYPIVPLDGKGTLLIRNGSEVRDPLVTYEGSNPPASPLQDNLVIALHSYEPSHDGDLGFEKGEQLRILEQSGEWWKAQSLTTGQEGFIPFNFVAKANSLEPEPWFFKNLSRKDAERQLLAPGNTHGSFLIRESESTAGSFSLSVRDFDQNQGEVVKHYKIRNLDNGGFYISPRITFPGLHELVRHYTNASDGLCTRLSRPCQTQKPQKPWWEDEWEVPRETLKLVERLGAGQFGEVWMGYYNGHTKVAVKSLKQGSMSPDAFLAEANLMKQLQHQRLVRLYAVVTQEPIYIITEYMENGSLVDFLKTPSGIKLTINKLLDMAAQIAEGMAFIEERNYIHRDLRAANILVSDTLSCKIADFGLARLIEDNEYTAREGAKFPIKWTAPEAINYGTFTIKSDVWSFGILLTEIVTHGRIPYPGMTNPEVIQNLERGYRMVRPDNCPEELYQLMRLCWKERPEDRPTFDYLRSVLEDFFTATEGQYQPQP
T2 sequence (P12931 whole entry, species assumed, the tested form may be a part): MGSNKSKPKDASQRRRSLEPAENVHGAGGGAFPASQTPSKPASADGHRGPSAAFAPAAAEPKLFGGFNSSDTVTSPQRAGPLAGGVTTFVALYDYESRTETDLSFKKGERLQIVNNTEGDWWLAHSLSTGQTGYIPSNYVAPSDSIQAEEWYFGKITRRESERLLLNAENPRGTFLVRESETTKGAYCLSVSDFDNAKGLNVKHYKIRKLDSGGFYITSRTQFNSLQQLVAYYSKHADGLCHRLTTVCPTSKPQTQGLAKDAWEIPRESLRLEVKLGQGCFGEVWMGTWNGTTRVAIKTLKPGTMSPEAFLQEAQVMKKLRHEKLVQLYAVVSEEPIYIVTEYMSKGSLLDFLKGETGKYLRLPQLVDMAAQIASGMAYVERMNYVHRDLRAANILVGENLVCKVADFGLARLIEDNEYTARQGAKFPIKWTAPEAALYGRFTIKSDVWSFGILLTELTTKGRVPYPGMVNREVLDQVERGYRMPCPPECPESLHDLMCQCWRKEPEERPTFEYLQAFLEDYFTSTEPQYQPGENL

Compound	IC50 (Fyn)	IC50 (Src)	IC50 (Zap-70)	IC50 (PDGFRB [1])	IC50 (Kdr)	IC50 (Flt-1)	IC50 (Ret-1)	IC50 (c-Met)	IC50 (Lck)	IC50 (Hck-1)	IC50 (IGFR-1)	IC50 (Itk)	IC50 (ErbB4)	IC50 (Lyn)	IC50 (AKT)	IC50 (FGFR1)	IC50 (EGFR)	IC50 (ErbB2)	IC50 (PDGFRB [2])
COc1cc(Nc2ncnc(Nc3ccc4c(cnn4Cc4ccccc4)c3)n2)cc(OC)c1OCCN1CCOCC1 [Compound 559]	< 0.687 µM	< 0.687 µM	> 7.72 µM	< 0.687 µM	0.687 to 4.12 µM	> 7.72 µM	< 0.687 µM	> 7.72 µM	< 0.687 µM	4.12 to 6.01 µM	0.687 to 4.12 µM	4.12 to 6.01 µM	< 0.687 µM	< 0.687 µM	> 7.72 µM	0.687 to 4.12 µM	< 0.687 µM	< 0.687 µM	
COc1cc(Nc2ncnc(-n3c(NC4c5ccccc5CC4O)nc4ccccc43)n2)cc(OC)c1OC (stereo not shown) [Compound 579]	> 8.56 µM	> 8.56 µM	> 8.56 µM		0.761 to 4.57 µM and < 0.761 µM	0.761 to 4.57 µM	< 0.761 µM	> 8.56 µM	0.761 to 4.57 µM		> 8.56 µM	> 8.56 µM	< 0.761 µM	4.57 to 6.66 µM	> 8.56 µM	0.761 to 4.57 µM		4.57 to 6.66 µM and < 0.761 µM	> 8.56 µM
Cc1cccc(Nc2ncnc(N3CCCc4ccc(C(F)(F)F)cc43)n2)c1 [Compound 582]	> 11.7 µM	> 11.7 µM	> 11.7 µM		6.23 to 9.08 µM	> 11.7 µM	6.23 to 9.08 µM	9.08 to 11.7 µM	6.23 to 9.08 µM		> 11.7 µM	> 11.7 µM	> 11.7 µM	> 11.7 µM	> 11.7 µM	1.04 to 6.23 µM	< 1.04 µM	1.04 to 6.23 µM	> 11.7 µM
CCOC(=O)C(Nc1nc2ccccc2n1-c1ncnc(Nc2cc(OC)c(OC)c(OC)c2)n1)c1ccccc1 (stereo not shown) [Compound 585]	> 8.1 µM	> 8.1 µM	> 8.1 µM		< 0.72 µM	0.72 to 4.32 µM	< 0.72 µM	6.3 to 8.1 µM	4.32 to 6.3 µM		> 8.1 µM	> 8.1 µM	> 8.1 µM	> 8.1 µM	> 8.1 µM	< 0.72 µM	> 8.1 µM	4.32 to 6.3 µM	0.72 to 4.32 µM
COc1cc(Nc2ncnc(-n3c(NC4CCCc5ccccc54)nc4ccccc43)n2)cc(OC)c1OC (stereo not shown) [Compound 587]	> 8.59 µM	> 8.59 µM	> 8.59 µM		< 0.764 µM and 0.764 to 4.58 µM	0.764 to 4.58 µM	< 0.764 µM	6.68 to 8.59 µM and > 8.59 µM	0.764 to 4.58 µM		6.68 to 8.59 µM and > 8.59 µM	> 8.59 µM	0.764 to 4.58 µM	0.764 to 4.58 µM	> 8.59 µM	< 0.764 µM	4.58 to 6.68 µM and 6.68 to 8.59 µM	0.764 to 4.58 µM and 4.58 to 6.68 µM	0.764 to 4.58 µM and > 8.59 µM
COc1cc(Nc2ncnc(-n3c(NC(CCO)c4ccccc4)nc4ccccc43)n2)cc(OC)c1OC (stereo not shown) [Compound 591]	< 0.758 µM	< 0.758 µM	> 8.53 µM	< 0.758 µM	< 0.758 µM	< 0.758 µM	< 0.758 µM	> 8.53 µM	< 0.758 µM	0.758 to 4.55 µM	> 8.53 µM	> 8.53 µM	6.63 to 8.53 µM	0.758 to 4.55 µM	> 8.53 µM	< 0.758 µM	> 8.53 µM	4.55 to 6.63 µM	
CCC(Nc1nc2ccccc2n1-c1ncnc(Nc2cc(OC)c(OC)c(OC)c2)n1)c1ccccc1 (stereo not shown) [Compound 592]	0.782 to 4.69 µM	0.782 to 4.69 µM	> 8.8 µM	< 0.782 µM	< 0.782 µM	0.782 to 4.69 µM	< 0.782 µM	> 8.8 µM	0.782 to 4.69 µM	> 8.8 µM	> 8.8 µM	> 8.8 µM	4.69 to 6.84 µM	0.782 to 4.69 µM	> 8.8 µM	< 0.782 µM	0.782 to 4.69 µM	0.782 to 4.69 µM	
